According to ChEMBL document CHEMBL5727275, “Tetrahydronaphthyl urea derivative” (2019):

Target: High affinity nerve growth factor receptor (Homo sapiens, UniProt P04629)
Experiment: Evaluation of Binding Activity for Human TrkA Protein: Measurement was carried out using TrkA LanthaScreen (registered trademark) Eu Kinase Binding Assay (ThermoFisher SCIENTIFIC). To a 384 well plate (Corning), 2.5 μL of the test compound having various concentrations and diluted with Kinase buffer (ThermoFisher SCIENTIFIC) and 2.5 μL of 15 nM TrkA enzyme (ThermoFisher SCIENTIFIC) were added. Moreover, […] Eu-anti-His Tag antibody (ThermoFisher SCIENTIFIC) and 5 μL of 30 nM Kinase (registered trademark) Tracer 236 (ThermoFisher SCIENTIFIC) were added, followed by reaction at room temperature for 60 minutes. After the reaction, the fluorescence intensity of Europium (Emission wavelength 615 nm) and TR-FRET (Emission wavelength 665 nm) with an excitation wavelength of 340 nm were measured with EnVision 2100 (PerkinElmer) to calculate the fluorescence ratio as the amount of the test compound and the TrkA enzyme bonded. The inhibitory activity (IC50 value) of each test compound was calculated with the fluorescence ratio of the well to which a solvent was added instead of the test compound being 0% and the fluorescence ratio of the well without addition of the TrkA protein being 100%.

Chain of High affinity nerve growth factor receptor (P04629 whole entry): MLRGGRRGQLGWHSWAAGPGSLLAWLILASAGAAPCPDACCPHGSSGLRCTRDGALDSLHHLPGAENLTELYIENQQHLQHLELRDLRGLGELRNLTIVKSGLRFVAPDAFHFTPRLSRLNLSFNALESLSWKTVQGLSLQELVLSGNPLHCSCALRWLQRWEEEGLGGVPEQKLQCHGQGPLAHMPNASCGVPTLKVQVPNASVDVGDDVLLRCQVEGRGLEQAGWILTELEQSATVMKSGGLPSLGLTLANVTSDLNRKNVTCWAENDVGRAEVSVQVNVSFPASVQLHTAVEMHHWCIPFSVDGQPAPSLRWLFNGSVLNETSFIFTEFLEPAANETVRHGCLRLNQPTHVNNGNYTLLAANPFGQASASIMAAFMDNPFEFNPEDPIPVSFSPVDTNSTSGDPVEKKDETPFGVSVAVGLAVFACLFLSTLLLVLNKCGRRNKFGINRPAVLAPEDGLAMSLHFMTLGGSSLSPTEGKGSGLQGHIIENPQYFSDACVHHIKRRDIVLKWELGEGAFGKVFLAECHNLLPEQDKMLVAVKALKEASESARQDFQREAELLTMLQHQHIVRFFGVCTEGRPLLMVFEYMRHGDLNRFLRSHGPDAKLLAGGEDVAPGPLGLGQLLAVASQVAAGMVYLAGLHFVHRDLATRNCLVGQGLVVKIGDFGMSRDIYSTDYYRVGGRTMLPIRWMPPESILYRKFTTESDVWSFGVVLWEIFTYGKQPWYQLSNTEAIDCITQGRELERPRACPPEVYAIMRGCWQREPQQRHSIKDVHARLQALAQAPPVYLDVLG

| IC50 | SMILES |
| --- | --- |
| < 0.05 µM | Cc1ncc(-c2nc(-c3ccccc3)c(NC(=O)N[C@H]3c4ccc(F)cc4C(C)(C)C[C@H]3O)cc2C)cn1 |
| < 0.05 µM | Cc1ncc(-c2nc(-c3ccccc3)c(NC(=O)N[C@H]3c4cc(F)ccc4C(C)(C)C[C@H]3O)cc2C)cn1 |
